target: FGFR1 active kinase (Homo sapiens, UniProt P11362); assay: FGFR Kinase assay - Caliper Echo Dosing; assay type: biochemical; details: FGFR1 7.2 nM, 408 uM ATP, acoustic dosing; geometric mean of n
Protocol: FGFR Kinase Assay—Caliper Echo Dosing
To determine inhibition of FGFR activity, kinase assays were conducted using Caliper technology.
Kinase activity assays were performed in Greiner 384-well low volume plates, with a total reaction volume of 12 ul per well. Final concentration of FGFR1 active kinase in each reaction well was 7.2 nM. The substrate for each assay was a custom peptide with fluorescent tag (13 amino acids in length, […] with the fluorescene tag on the first K).
Compounds were dispensed directly in to assay plates using a Labcyte Echo 550 acoustic droplet ejection unit. Each well received 120 nl of DMSO containing compound such that the final concentration of compound in the assay prior to the addition of the stop solution ranged between 30 uM and 30 pM. In addition to compounds each plate carried maximum and minimum control wells, the max wells contained 120 nl of DMSO and the min wells contained 120 nl of 10 mM staurosporine (LC Laboratories, MA 01801, USA Catalogue No. S-9300). The Enzyme (at 7.2 nM [final]) and Substrate (at 3.6 uM [final]) were added separately to the compound plates, in reaction buffer [comprising: 50 mM MOPS (Sigma, Catalogue No. M1254)—pH 6.5, 0.004% Triton (Sigma, Catalogue No. X-100), 2.4 mM DTT, 12 mM MgCl2, 408 uM ATP] resulting in a final DMSO concentration in the reaction mix of 1%.
Assay plates were incubated at room temperature for 1.5 h, before the reaction was stopped with the addition of buffer [comprising: 100 mM HEPES—pH7.5, 0.033% Brij-35 (Sigma Catalogue No. B4184), 0.22% Caliper Coating Reagent #3 (Caliper Life Sciences Catalogue No. 760050), 88 mM EDTA, 5% DMSO]. Stopped assay plates were then read using the Caliper LabChip® LC3000 (which uses microfludics to measure a shift in mobility between fluorescent labelled peptide and the FGFR1 kinase—phosphorylated form of this peptide).
In the assay, compounds were tested at a range of concentrations. […] Percentage inhibition at 1 uM, as expressed herein, is a calculated value based on the curve fit that was generated experimentally. From the fitted curve plot, the effect of compound at a concentration of 1 uM was calculated as a percentage inhibition. The IC50 is the concentration of compound, which inhibits FGFR1 kinase activity by 50% in the context of this assay. This value is calculated using a standard curve fitting software package Origin™.

Chain of FGFR1 active kinase (P11362 22-822): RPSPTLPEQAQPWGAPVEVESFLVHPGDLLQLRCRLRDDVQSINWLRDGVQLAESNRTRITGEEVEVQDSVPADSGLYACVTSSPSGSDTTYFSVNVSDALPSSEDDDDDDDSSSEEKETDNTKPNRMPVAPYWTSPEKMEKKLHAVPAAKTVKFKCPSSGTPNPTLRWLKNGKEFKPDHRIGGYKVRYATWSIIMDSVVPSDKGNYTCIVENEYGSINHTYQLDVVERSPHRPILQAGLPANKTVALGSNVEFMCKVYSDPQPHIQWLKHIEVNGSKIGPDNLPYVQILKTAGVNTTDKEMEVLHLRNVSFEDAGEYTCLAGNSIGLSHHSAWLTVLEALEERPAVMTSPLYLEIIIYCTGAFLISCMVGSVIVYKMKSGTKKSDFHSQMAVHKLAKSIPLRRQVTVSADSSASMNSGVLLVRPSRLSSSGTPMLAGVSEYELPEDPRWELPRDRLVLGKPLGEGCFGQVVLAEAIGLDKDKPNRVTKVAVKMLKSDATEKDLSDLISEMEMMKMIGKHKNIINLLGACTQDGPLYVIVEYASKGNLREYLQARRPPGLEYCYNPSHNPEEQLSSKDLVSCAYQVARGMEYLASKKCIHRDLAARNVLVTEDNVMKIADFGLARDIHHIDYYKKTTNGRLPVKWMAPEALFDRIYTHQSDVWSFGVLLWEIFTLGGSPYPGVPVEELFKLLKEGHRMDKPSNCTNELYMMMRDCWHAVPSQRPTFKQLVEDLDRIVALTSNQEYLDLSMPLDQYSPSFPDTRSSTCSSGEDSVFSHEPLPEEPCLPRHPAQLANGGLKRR

SMILES	IC50 [nM]
C=CCN1CCC(c2ccc(C(=O)Nc3cc(CCc4cc(OC)cc(OC)c4)n[nH]3)cc2)CC1 [Example 144, N-[5-[2-(3,5-dimethoxyphenyl)ethyl]-2H-pyrazol-3-yl]-4-(1-prop-2-enylpiperidin-4-yl)benzamide]	0.041
COc1cc(CCc2cc(NC(=O)c3cnc(N4CCN5CCCC5C4)cn3)[nH]n2)cc(OC)c1 (stereo not shown) [Example 114, 5-(3,4,6,7,8,8a-hexahydro-1H-pyrrolo[2,1-c]pyrazin-2-yl)-N-[5-[2-(3,5-dimethoxyphenyl)ethyl]-2H-pyrazol-3-yl]pyrazine-2-carboxamide]	1.6
COc1cc(COc2cc(NC(=O)c3ccc(N4C[C@@H](C)N[C@@H](C)C4)s3)[nH]n2)cc(OC)c1 [Example 147, N-[5-[(3,5-dimethoxyphenyl)methoxy]-2H-pyrazol-3-yl]-5-[(3S,5R)-3,5-dimethylpiperazin-1-yl]thiophene-2-carboxamide]	1.8
COc1cc(COc2cc(NC(=O)c3ccc(N4CCN5CCCC5C4)cc3)[nH]n2)cc(OC)c1 (stereo not shown) [Example 104, 4-(3,4,6,7,8,8a-hexahydro-1H-pyrrolo[2,1-c]pyrazin-2-yl)-N-[5-[(3,5-dimethoxyphenyl)methoxy]-2H-pyrazol-3-yl]benzamide]	1.3
COc1cc(COc2cc(NC(=O)c3cnc(N4CCN(C)C(C)C4)cn3)[nH]n2)cc(OC)c1 (stereo not shown) [Example 124, N-[5-[(3,5-Dimethoxyphenyl)methoxy]-2H-pyrazol-3-yl]-5-(3,4-dimethylpiperazin-1-yl)pyrazine-2-carboxamide]	1.5
COc1cc(COc2cc(NC(=O)c3ccc(N4CCN5CCCCC5C4)cc3)[nH]n2)cc(OC)c1 (stereo not shown) [Example 98, 4-(1,3,4,6,7,8,9,9a-octahydropyrido[2,1-c]pyrazin-2-yl)-N-[5-[(3,5-dimethoxyphenyl)methoxy]-2H-pyrazol-3-yl]benzamide]	3
COc1cc(CCc2cc(NC(=O)c3ccc(N4CCN5CCCC5C4)s3)[nH]n2)cc(OC)c1 (stereo not shown) [Example 120, 5-(3,4,6,7,8,8a-hexahydro-1H-pyrrolo[2,1-c]pyrazin-2-yl)-N-[5-[2-(3,5-dimethoxyphenyl)ethyl]-2H-pyrazol-3-yl]thiophene-2-carboxamide]	0.98
COc1cc(CCc2cc(NC(=O)c3cnc(N4CCCN(C5CC5)CC4)nc3)[nH]n2)cc(OC)c1 [Example 177, 2-(4-cyclopropyl-1,4-diazepan-1-yl)-N-[5-[2-(3,5-dimethoxyphenyl)ethyl]-2H-pyrazol-3-yl]pyrimidine-5-carboxamide]	7.3
COc1cc(CCc2cc(NC(=O)c3cnc(C4CCN(C)CC4)cn3)[nH]n2)cc(OC)c1 [Example 152, N-[5-[2-(3,5-dimethoxyphenyl)ethyl]-2H-pyrazol-3-yl]-5-(1-methylpiperidin-4-yl)pyrazine-2-carboxamide]	1.3
CCN1CCC(c2ccc(C(=O)Nc3cc(CCc4cc(OC)cc(OC)c4)n[nH]3)cc2)CC1 [Example 159, N-[5-[2-(3,5-dimethoxyphenyl)ethyl]-2H-pyrazol-3-yl]-4-(1-ethylpiperidin-4-yl)benzamide]	0.97
COc1cc(COc2cc(NC(=O)c3cnc(Cl)cn3)[nH]n2)cc(OC)c1 [5-Chloro-N-[5-[(3,5-dimethoxyphenyl)methoxy]-2H-pyrazol-3-yl]pyrazine-2-carboxamide]	60
COc1cc(CCc2cc(NC(=O)c3cnc(N4CCCN(C5CC5)CC4)cn3)[nH]n2)cc(OC)c1 [Example 174, 5-(4-cyclopropyl-1,4-diazepan-1-yl)-N-[5-[2-(3,5-dimethoxyphenyl)ethyl]-2H-pyrazol-3-yl]pyrazine-2-carboxamide]	3.7
COc1cc(CCc2cc(NC(=O)c3cnc(N4CCCN(C(C)C)CC4)cn3)[nH]n2)cc(OC)c1 [Example 167, N-[5-[2-(3,5-dimethoxyphenyl)ethyl]-2H-pyrazol-3-yl]-5-(4-propan-2-yl-1,4-diazepan-1-yl)pyrazine-2-carboxamide]	0.63
COc1cc(COc2cc(NC(=O)c3ccc(N4CCNC(C)(C)C4)s3)[nH]n2)cc(OC)c1 [Example 140, N-[5-[(3,5-dimethoxyphenyl)methoxy]-2H-pyrazol-3-yl]-5-(3,3-dimethylpiperazin-1-yl)thiophene-2-carboxamide]	0.98
COc1cc(CCc2cc(NC(=O)c3cnc(N4CCCN(C)CC4)nc3)[nH]n2)cc(OC)c1 [Example 176, N-[5-[2-(3,5-dimethoxyphenyl)ethyl]-2H-pyrazol-3-yl]-2-(4-methyl-1,4-diazepan-1-yl)pyrimidine-5-carboxamide]	5.8
COc1cc(COc2cc(NC(=O)c3cnc(N4C[C@@H](C)N(C)[C@@H](C)C4)nc3)[nH]n2)cc(OC)c1 [Example 138, N-(3-(3,5-dimethoxybenzyloxy)-1H-pyrazol-5-yl)-2-((3R,5S)-3,4,5-trimethylpiperazin-1-yl)pyrimidine-5-carboxamide]	2.6
COc1cc(COc2cc(NC(=O)c3cnc(N4C[C@@H](C)N(CC#N)[C@@H](C)C4)cn3)[nH]n2)cc(OC)c1 [Example 131, 5-[(3R,5S)-4-(cyanomethyl)-3,5-dimethylpiperazin-1-yl]-N-[5-[(3,5-dimethoxyphenyl)methoxy]-2H-pyrazol-3-yl]pyrazine-2-carboxamide]	3.5
CCN1CCN(c2ncc(C(=O)Nc3cc(CCc4cc(OC)cc(OC)c4)n[nH]3)cn2)CC1C (stereo not shown) [Example 143, N-[5-[2-(3,5-dimethoxyphenyl)ethyl]-2H-pyrazol-3-yl]-2-(4-ethyl-3-methylpiperazin-1-yl)pyrimidine-5-carboxamide]	2.7
COc1cc(CCc2cc(NC(=O)c3cnc(N4C[C@@H](C)N(CC#N)[C@@H](C)C4)cn3)[nH]n2)cc(OC)c1 [Example 129, 5-[(3R,5S)-4-(cyanomethyl)-3,5-dimethylpiperazin-1-yl]-N-[5-[2-(3,5-dimethoxyphenyl)ethyl]-2H-pyrazol-3-yl]pyrazine-2-carboxamide]	3.5
COc1cc(CCc2cc(NC(=O)c3cnc(N4CCN5CCCCC5C4)cn3)[nH]n2)cc(OC)c1 (stereo not shown) [Example 105, 5-(1,3,4,6,7,8,9,9a-Octahydropyrido[2,1-c]pyrazin-2-yl)-N-[5-[2-(3,5-dimethoxyphenyl)ethyl]-2H-pyrazol-3-yl]pyrazine-2-carboxamide]	130
COc1cc(CCc2cc(NC(=O)c3ccc(C4CCN(C5CC5)CC4)cc3)[nH]n2)cc(OC)c1 [Example 99, 4-(1-Cyclopropylpiperidin-4-yl)-N-[5-[2-(3,5-dimethoxyphenyl)ethyl]-2H-pyrazol-3-yl]benzamide]	0.91
COc1cc(CCc2cc(NC(=O)c3cnc(N4CCN(C)C(C)C4)cn3)[nH]n2)cc(OC)c1 (stereo not shown) [Example 123, N-[5-[2-(3,5-Dimethoxyphenyl)ethyl]-2H-pyrazol-3-yl]-5-(3,4-dimethylpiperazin-1-yl)pyrazine-2-carboxamide]	2.2
COc1cc(CCc2cc(NC(=O)c3cnc(N4CCCN(C)CC4)cn3)[nH]n2)cc(OC)c1 [Example 163, N-[5-[2-(3,5-dimethoxyphenyl)ethyl]-2H-pyrazol-3-yl]-5-(4-methyl-1,4-diazepan-1-yl)pyrazine-2-carboxamide]	1.8
CCN1CCN(c2ccc(C(=O)Nc3cc(CCc4cc(OC)cc(OC)c4)n[nH]3)cc2)CC1 [Example 180, N-[5-[2-(3,5-dimethoxyphenyl)ethyl]-2H-pyrazol-3-yl]-4-(4-ethylpiperazin-1-yl)benzamide]	1.7
CCN1CCCN(c2ccc(C(=O)Nc3cc(CCc4cc(OC)cc(OC)c4)n[nH]3)cc2)CC1 [Example 170, N-[5-[2-(3,5-dimethoxyphenyl)ethyl]-2H-pyrazol-3-yl]-4-(4-ethyl-1,4-diazepan-1-yl)benzamide]	0.71
COc1cc(CCc2cc(NC(=O)c3ccc(N4CCCN(C5CC5)CC4)cc3)[nH]n2)cc(OC)c1 [Example 165, 4-(4-cyclopropyl-1,4-diazepan-1-yl)-N-[5-[2-(3,5-dimethoxyphenyl)ethyl]-2H-pyrazol-3-yl]benzamide]	0.064
COc1cc(CCc2cc(NC(=O)c3cnc(N4C[C@@H](C)N(C)[C@@H](C)C4)nc3)[nH]n2)cc(OC)c1 [Example 136, N-[5-[2-(3,5-dimethoxyphenyl)ethyl]-2H-pyrazol-3-yl]-2-[(3R,5S)-3,4,5-trimethylpiperazin-1-yl]pyrimidine-5-carboxamide]	1.9
COc1cc(CCc2cc(NC(=O)c3cnc(N4CCC(N(C)C)C4)cn3)[nH]n2)cc(OC)c1 (stereo not shown) [Example 157, N-[5-[2-(3,5-dimethoxyphenyl)ethyl]-2H-pyrazol-3-yl]-5-(3-dimethylaminopyrrolidin-1-yl)pyrazine-2-carboxamide]	2.4
